Data from US4761483A, “Chloro-substituted ketone imidazole derivatives” (G. D. Searle & Co., priority 1985, dated 1988).
≈ marks a conversion by molar mass, not a printed value. Where “and” joins values, the source holds several entries; their conditions need not be identical. Equal values may be shown once. Where a name gives a salt, the structure may show the parent alone. Read-outs that look alike come from different tables or passages of the source.

Key:
[1] = system: B. fragilis NCTC 10581; assay: anti-anaerobic activity, MIC/MBC in 96 well microtitre plates, strain A; format: cell-based, Bacteroides fragilis; settings: for MBC / MIC: Bacteroides fragilis, NCTC10581, 48 h; for MBC: read-out: MBC (Minimum Bactericidal Concentration); for MIC: read-out: MIC (Minimum Inhibitory Concentration)
[2] = system: B. fragilis NCTC 9343; assay: anti-anaerobic activity, MIC/MBC in 96 well microtitre plates, strain B; format: cell-based, Bacteroides fragilis; settings: for MIC / MBC: Bacteroides fragilis; for MIC: read-out: MIC (Minimum Inhibitory Concentration); for MBC: 99.9% reduction in viable count after 48 hours
[3] = system: B. fragilis NCTC 9344; assay: anti-anaerobic activity, MIC/MBC in 96 well microtitre plates, strain C; format: cell-based, Bacteroides fragilis; settings: for MBC / MIC: Bacteroides fragilis, NCTC9344, 48 h; for MBC: read-out: MBC (Minimum Bactericidal Concentration); for MIC: read-out: MIC (Minimum Inhibitory Concentration)
[4] = system: B. fragilis MZ-R ATCC 11295; assay: anti-anaerobic activity, MIC/MBC in 96 well microtitre plates, strain D; format: cell-based, Bacteroides fragilis; settings: for MBC / MIC: Bacteroides fragilis, ATCC11295, 48 h; for MBC: read-out: MBC (Minimum Bactericidal Concentration); for MIC: read-out: MIC (Minimum Inhibitory Concentration)
Procedure: The screening panel utilized in the Example consisted of 5 strains of Bacteroides fragilis. All assays were carried out in 96 well microtitre plates. If an isolate was obtained from either a culture collection or clinical source, the isolate was immediately innoculated into Wilkens-Chalgren broth (Oxoid) and incubated at 37° C. in an anaerobic chamber in an atmosphere of 85% nitrogen, 10% carbon dioxide, and 5% hydrogen for 48 hours. At the end of this time, the viable count was about […] broth. A 1 ml aliquot of each culture was placed in an ampoule and quick frozen in acetone-dry ice mixture and stored in liquid nitrogen. When an inoculum was utilized in an assay, one of the ampoules was thawed and diluted with fresh broth to yield a suspension having a count of 5×10^5 organisms/ml. A 100 μl aliquot of the suspension was inoculated into each well of the microtitre plate. A 2 mg sample of the test compound wa dissolved in 0.2 ml of a suitable solvent such as dimethylsulfoxide, polyethylene glycol 200 or methanol. The solution was then diluted with 4.8 ml of water to yield a solution having a concentration of 400 mg/L. Doubling dilutions of this stock were prepared to give a range of concentrations from 1.6-200 mg/L. 100 μl of each concentration were then placed in the wells of the microtitre plate containing the inoculum, to produce a final concentration range of 0.8-100 mg/l. Metronidazole was employed as a positive control and a solvent/water mixture was employed as a negative control. After addition of the test solution the final inoculum level was 10^5 cells/ml. The plates were incubated for 48 hours at 37° C. in the anaerobic chamber. The Minimum Inhibitory Concentration (MIC) was read visually. The MIC is defined as the lowest concentration at which there is no detectable growth. The Minimum Bactericidal Concentration (MBC) was determined by taking a 50 μl aliquot from each well and placing it in fresh medium. […] The strains of Bacteroides fragilis utilized in the above procedure are identified by letter in accordance with the following legend: |D B. fragilis MZ-R ATCC 11295

[5] = system: B. fragilis WS-1; assay: anti-anaerobic activity, MIC/MBC in 96 well microtitre plates, strain E; format: cell-based; settings: Bacteroides fragilis; for MIC: 48 hours at 37° C., anaerobic chamber, 10^5 cells/ml, read-out: MIC (Minimum Inhibitory Concentration); for MBC: 99.9% reduction in viable count after 48 hours
[6] = system: Clostridium perfringens NCTC 523; assay: microbe, parasite or virus in culture; format: cell-based; settings: NCTC523
[7] = system: Clostridium perfringens NCTC 8237; assay: microbe, parasite or virus in culture; format: cell-based; settings: NCTC8237
[8] = system: Campylobacter fetus ATCC 29428; assay: anti-anaerobic activity, MIC (procedures of Example 13); format: cell-based; settings: ATCC29428, procedures of Example 13 (there mg/L)
[9] = system: Fusobacterium necrophorum ATCC 11295; assay: as above; format: cell-based; settings: ATCC11295, procedures of Example 13 (there mg/L)
[10] = system: Peptococcus magnus ATCC 29328; assay: as above; format: cell-based; settings: Finegoldia magna, ATCC29328
[11] = system: Peptococcus prevotti ATCC 9321; assay: as above; format: cell-based
[12] = system: Peptostreptococcus anaerobicus ATCC 27337; assay: as above; format: cell-based; settings: ATCC27337
[13] = system: Propionibacterium acnes NCTC 737; assay: as above; format: cell-based; settings: Cutibacterium acnes, NCTC737, procedures of Example 13 (there mg/L)
[14] = system: Propionibacterium acnes NCTC 7337; assay: as above; format: cell-based; settings: Cutibacterium acnes, NCTC7337, procedures of Example 13 (there mg/L)
[15] = strain A, 99.9% reduction in viable count after 48 hours
[16] = strain A, 48 hours at 37° C., anaerobic chamber, 10^5 cells/ml
[17] = NCTC9343, 48 h, strain B, 48 hours at 37° C., anaerobic chamber, 10^5 cells/ml
[18] = NCTC9343, strain B, read-out: MBC (Minimum Bactericidal Concentration)
[19] = strain C, 99.9% reduction in viable count after 48 hours
[20] = strain C, 48 hours at 37° C., anaerobic chamber, 10^5 cells/ml
[21] = 99.9% reduction in viable count after 48 hours
[22] = 48 hours at 37° C., anaerobic chamber, 10^5 cells/ml
[23] = WS1, strain E, read-out: MBC (Minimum Bactericidal Concentration)

| SMILES | MBC [1, 15] | MIC [1, 16] | MIC [2, 17] | MBC [2, 18] | MBC [3, 19] | MIC [3, 20] | MBC [4, 21] | MIC [4, 22] | MIC ([5]; WS1, 48 h, strain E) | MBC [5, 23] | further results |
| --- | --- | --- | --- | --- | --- | --- | --- | --- | --- | --- | --- |
| O=C(O)/C=C/c1cn(CC(Cl)(C(=O)c2ccc(Cl)cc2Cl)c2ccccc2)cn1 (stereo not drawn) [Example 6, E-3-[1-[2-Chloro-3-(2,4-dichlorophenyl)-3-oxo-2-phenylpropyl]imidazol-1-yl]propenoic acid hydrochloride] | 0.8 µg/mL | 0.8 µg/mL | 1.5 µg/mL | 3.1 µg/mL | 0.8 µg/mL | 0.8 µg/mL | 0.8 µg/mL | 0.8 µg/mL | 3.1 µg/mL | 3.1 µg/mL | – |
| COC(=O)CCc1cn(CC(Cl)(C(=O)c2ccc(Cl)cc2Cl)c2ccccc2)cn1 (stereo not drawn) [Example 5, 3-[1-[2-Chloro-3-(2,4-dichlorophenyl)-3-oxo-2-phenylpropyl]-imidazol-4-yl]propanoic acid methyl ester] | 1.5 µg/mL (≈ 3.22 µM) | 1.5 µg/mL (≈ 3.22 µM) | 1.5 µg/mL (≈ 3.22 µM) | 1.5 µg/mL (≈ 3.22 µM) | 1.5 µg/mL (≈ 3.22 µM) | 1.5 µg/mL (≈ 3.22 µM) | 0.8 µg/mL (≈ 1.72 µM) | 0.8 µg/mL (≈ 1.72 µM) | 3.1 µg/mL (≈ 6.66 µM) | 3.1 µg/mL (≈ 6.66 µM) | – |
| C[C@H](NC(=O)[C@H](Cc1cn(CC(Cl)(C(=O)c2ccc(Cl)cc2Cl)c2ccccc2)cn1)NC(=O)OC(C)(C)C)C(=O)OC(C)(C)C (stereo partly drawn) [Example 9, N-[1-[2-Chloro-3-(2,4-dichlorophenyl)-3-oxo-2-phenylpropyl]-N-[(1,1-dimethylethoxy)carbonyl]-L-histidyl]-L-alanine 1,1-dimethylethyl ester] | 6.2 µg/mL (≈ 8.93 µM) | 3.1 µg/mL (≈ 4.47 µM) | 3.1 µg/mL (≈ 4.47 µM) | 3.1 µg/mL (≈ 4.47 µM) | 6.2 µg/mL (≈ 8.93 µM) | 6.2 µg/mL (≈ 8.93 µM) | 0.8 µg/mL (≈ 1.15 µM) | 0.8 µg/mL (≈ 1.15 µM) | 12.5 µg/mL (≈ 18 µM) | 12.5 µg/mL (≈ 18 µM) | – |
| Cc1ncc([N+](=O)[O-])n1CCO [Metronidazole, reference compound] | 0.8 µg/mL (≈ 4.67 µM) | 0.8 µg/mL (≈ 4.67 µM) | 0.8 µg/mL (≈ 4.67 µM) | 0.8 µg/mL (≈ 4.67 µM) | 0.8 µg/mL (≈ 4.67 µM) | 0.8 µg/mL (≈ 4.67 µM) | 6.2 µg/mL (≈ 36.2 µM) | 6.2 µg/mL (≈ 36.2 µM) | – | 1.5 µg/mL (≈ 8.76 µM) | MBC [1]: 1.2 µg/mL (≈ 7.01 µM); MBC (Minimum Bactericidal Concentration) [1, 15]: 0.6 µg/mL (≈ 3.51 µM); MIC (Minimum Inhibitory Concentration) [1, 16]: 0.6 µg/mL (≈ 3.51 µM); MBC ([2]; NCTC9343, 48 h, read-out: MBC (Minimum Bactericidal Concentration), strain B): 1.2 µg/mL (≈ 7.01 µM); MIC (Minimum Inhibitory Concentration) ([2]; strain B, 48 hours at 37° C., anaerobic chamber, 10^5 cells/ml): 1.2 µg/mL and 0.6 µg/mL; MBC [3]: 1.2 µg/mL (≈ 7.01 µM); MBC (Minimum Bactericidal Concentration) [3, 19]: 0.6 µg/mL (≈ 3.51 µM); MIC (Minimum Inhibitory Concentration) [3, 20]: 0.6 µg/mL and 1.2 µg/mL; MBC (Minimum Bactericidal Concentration) [4, 21]: 10.0 µg/mL (≈ 58.4 µM); MIC (Minimum Inhibitory Concentration) [4, 22]: 10.0 µg/mL (≈ 58.4 µM); MBC ([5]; WS1, 48 h, read-out: MBC (Minimum Bactericidal Concentration), strain E): 1.2 µg/mL (≈ 7.01 µM); MIC [6]: 0.8 µg/mL (≈ 4.67 µM); MIC [7]: 0.8 µg/mL (≈ 4.67 µM); MIC [8]: > 100 µg/mL; MIC [9]: 6.2 µg/mL (≈ 36.2 µM); MIC [10]: 0.8 µg/mL (≈ 4.67 µM); MIC [11]: 1.5 µg/mL (≈ 8.76 µM); MIC ([12]; Peptostreptococcus): 0.8 µg/mL (≈ 4.67 µM); MIC [13]: > 100 µg/mL; MIC [14]: > 100 µg/mL |
| N[C@@H](Cc1cn(CC(Cl)(C(=O)c2ccc(Cl)cc2Cl)c2ccccc2)cn1)C(=O)O (stereo partly drawn) [Example 8, 1-[2-Chloro-3-(2,4-dichlorophenyl)-3-oxo-2-phenylpropyl]-L-histidine] | 0.8 µg/mL (≈ 1.71 µM) | 0.8 µg/mL (≈ 1.71 µM) | 0.8 µg/mL (≈ 1.71 µM) | 0.8 µg/mL (≈ 1.71 µM) | 0.8 µg/mL (≈ 1.71 µM) | 0.8 µg/mL (≈ 1.71 µM) | 0.8 µg/mL (≈ 1.71 µM) | 0.8 µg/mL (≈ 1.71 µM) | 3.1 µg/mL (≈ 6.64 µM) | 3.1 µg/mL (≈ 6.64 µM) | – |
| C[C@H](NC(=O)[C@@H](N)CCCCNC(=O)/C=C/c1cn(CC(Cl)(C(=O)c2ccc(Cl)cc2Cl)c2ccccc2)cn1)C(=O)O (stereo partly drawn) [Example 12, N-[N^6-[E-3-[1-[2-Chloro-3-(2,4-dichlorophenyl)-3-oxo-2-phenylpropyl]imidazol-4-yl]propenoyl]-L-lysinyl]-L-alanine] | 3.1 µg/mL (≈ 4.78 µM) | 1.5 µg/mL (≈ 2.31 µM) | 1.5 µg/mL (≈ 2.31 µM) | 1.5 µg/mL (≈ 2.31 µM) | 3.1 µg/mL (≈ 4.78 µM) | 3.1 µg/mL (≈ 4.78 µM) | 0.8 µg/mL (≈ 1.23 µM) | 0.8 µg/mL (≈ 1.23 µM) | 6.2 µg/mL (≈ 9.55 µM) | 6.2 µg/mL (≈ 9.55 µM) | – |
| C[C@H](NC(=O)[C@@H](N)Cc1cn(CC(Cl)(C(=O)c2ccc(Cl)cc2Cl)c2ccccc2)cn1)C(=O)O (stereo partly drawn) [Example 10, N-[1-[2-Chloro-3-(2,4-dichlorophenyl)-3-oxo-2-phenylpropyl]-L-histidyl]-L-alanine] | 3.1 µg/mL (≈ 5.76 µM) | 3.1 µg/mL (≈ 5.76 µM) | 3.1 µg/mL (≈ 5.76 µM) | 3.1 µg/mL (≈ 5.76 µM) | 6.2 µg/mL (≈ 11.5 µM) | 3.1 µg/mL (≈ 5.76 µM) | 0.8 µg/mL (≈ 1.49 µM) | 0.8 µg/mL (≈ 1.49 µM) | 6.2 µg/mL (≈ 11.5 µM) | 6.2 µg/mL (≈ 11.5 µM) | – |
| O=C(c1ccc(Cl)cc1Cl)C(Cl)(Cn1ccnc1)c1ccccc1 (stereo not drawn) [Example 4, 2-Chloro-1-(2,4-dichlorophenyl)-3-(imidazol-1-yl)-2-phenylpropan-1-one] | 6.2 µg/mL (≈ 16.3 µM) | 0.8 µg/mL (≈ 2.11 µM) | 0.8 µg/mL (≈ 2.11 µM) | 6.2 µg/mL (≈ 16.3 µM) | 12.5 µg/mL (≈ 32.9 µM) | 0.8 µg/mL (≈ 2.11 µM) | 3.1 µg/mL (≈ 8.16 µM) | 0.8 µg/mL (≈ 2.11 µM) | 0.8 µg/mL (≈ 2.11 µM) | 6.2 µg/mL (≈ 16.3 µM) | MIC [6]: 0.8 µg/mL (≈ 2.11 µM); MIC [7]: 0.8 µg/mL (≈ 2.11 µM); MIC [8]: 0.8 µg/mL (≈ 2.11 µM); MIC [9]: 0.8 µg/mL (≈ 2.11 µM); MIC ([10]; Peptococcus magnus ATCC 29328, procedures of Example 13 (there mg/L), read-out: MIC): 0.8 µg/mL (≈ 2.11 µM); MIC ([11]; Peptococcus prevotti ATCC 9321, procedures of Example 13 (there mg/L), read-out: MIC): 0.8 µg/mL (≈ 2.11 µM); MIC ([12]; Peptostreptococcus anaerobicus ATCC 27337, procedures of Example 13 (there mg/L), read-out: MIC): 0.8 µg/mL (≈ 2.11 µM); MIC [13]: 0.8 µg/mL (≈ 2.11 µM); MIC [14]: 0.8 µg/mL (≈ 2.11 µM) |
